Measured values reported in US20180201592A1, “2-AMINO-1,3,4-THIADIAZINE AND 2-AMINO-1,3,4-OXADIAZINE BASED ANTIFUNGAL AGENTS” (F2G Limited, priority 2015, published 2018).

Tests used:
Settings in all cases: banded MIC grade
A. fumigatus 210 [1] = assay: Minimum inhibitory concentration, RPMI medium; assay type: cell-based
Summary of the method: (§1)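 Compound doubling dilutions were prepared from 5 mg/mL DMSO stock; fungus was diluted in RPMI 1640 with 2% glucose and 0.135 M MOPS (pH 7.0), giving inocula of 1-2×10^4 cfu/mL and drug range 50-0.05 mg/L. Plates ran 24-48 hrs at 35° C; MIC is the lowest concentration giving >80% growth inhibition by OD485 versus drug-free control.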

A. fumigatus = assay: Minimum inhibitory concentration, RPMI medium; assay type: cell-based
Summary of the method: as §1

A. niger = assay: Minimum inhibitory concentration, RPMI medium; assay type: cell-based
Summary of the method: (§2)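 Broth microdilution in RPMI 1640 medium using doubling dilutions in water prepared from a 5 mg/mL DMSO stock. Plates incubated 24-48 hrs at 35° C; growth read as optical density at 485 nm.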

C. tropicalis = assay: Minimum inhibitory concentration, RPMI medium; assay type: cell-based
Summary of the method: as §2

A. terreus 49 [2] = assay: Minimum inhibitory concentration, RPMI medium; assay type: cell-based
Summary of the method: as §2

A. flavus = assay: Minimum inhibitory concentration, RPMI medium; assay type: cell-based
Summary of the method: as §2

C. albicans = assay: Minimum inhibitory concentration, RPMI medium; assay type: cell-based
Summary of the method: as §2

C. glabrata = assay: Minimum inhibitory concentration, RPMI medium; assay type: cell-based
Summary of the method: as §2

C. parapsilosis = assay: Minimum inhibitory concentration, RPMI medium; assay type: cell-based
Summary of the method: as §2

C. krusei = assay: Minimum inhibitory concentration, RPMI medium; assay type: cell-based
Summary of the method: as §2

A. terreus = assay: Minimum inhibitory concentration, RPMI medium; assay type: cell-based
Summary of the method: as §2

Aspergillus fumigatus = assay: Minimum inhibitory concentration, YAG medium; assay type: cell-based
Summary of the method: (§3)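 Growth was read as optical density at 485 nm after 24 hrs at 35° C, and the MIC taken as the lowest drug concentration cutting growth by >70% relative to drug-free wells. Plates held doubling dilutions (50-0.05 mg/L) with 1-2×10^4 cfu/mL spores in YAG medium.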

A. fumigatus 210 [3] = assay: Minimum inhibitory concentration, YAG medium; assay type: cell-based, Aspergillus fumigatus
Summary of the method: as §3

Aspergillus flavus = assay: Minimum inhibitory concentration, YAG medium; assay type: cell-based
Summary of the method: (§4)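 Compound in DMSO (5 mg/mL stock), diluted in water and doubling-diluted; Aspergillus spores grown in YAG medium 24 hrs at 35° C. Growth read as optical density at 485 nm; MIC given in mg/L.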

Aspergillus terreus = assay: Minimum inhibitory concentration, YAG medium; assay type: cell-based
Summary of the method: as §4

Aspergillus niger = assay: Minimum inhibitory concentration, YAG medium; assay type: cell-based
Summary of the method: as §4

A. terreus 49 [4] = assay: Minimum inhibitory concentration, YAG medium; assay type: cell-based, Aspergillus terreus
Summary of the method: as §4

Structure (SMILES)	MIC grade, A. FUMIGATUS 210, RPMI media (A. fumigatus 210 [1])	MIC grade, A. FUMIGATUS, RPMI media (A. fumigatus)	MIC grade, A. NIGER, RPMI media (A. niger)	MIC grade, C. TROPICALIS, RPMI media (C. tropicalis)	MIC grade, A. TERREUS 49, RPMI media (A. terreus 49 [2])	MIC grade, A. FLAVUS, RPMI media (A. flavus)	MIC grade, C. ALBICANS, RPMI media (C. albicans)	MIC grade, C. GLABRATA, RPMI media (C. glabrata)	MIC grade, C. PARAPSILOSIS, RPMI media (C. parapsilosis)	MIC grade, C. KRUSEI, RPMI media (C. krusei)	MIC grade, A. TERREUS, RPMI media (A. terreus)	MIC grade, A. FUMIGATUS, YAG media (Aspergillus fumigatus)	MIC grade, A. FUMIGATUS 210, YAG media (A. fumigatus 210 [3])	MIC grade, A. FLAVUS, YAG media (Aspergillus flavus)	MIC grade, A. TERREUS, YAG media (Aspergillus terreus)	MIC grade, A. NIGER, YAG media (Aspergillus niger)	MIC grade, A. TERREUS 49, YAG media (A. terreus 49 [4])
NC1=NN=C(CCCCOCc2ccc(Cl)cc2)CS1	2 (2: 5-20 mg/L)	3 (3: 1-5 mg/L)	3 (3: 1-5 mg/L)	3 (3: 1-5 mg/L)	3 (3: 1-5 mg/L)	4 (4: <1 mg/L)	4 (4: <1 mg/L)	3 (3: 1-5 mg/L)	4 (4: <1 mg/L)	4 (4: <1 mg/L)	3 (3: 1-5 mg/L)	4 (4: <0.2 mg/L)	4 (4: <0.2 mg/L)	4 (4: <0.2 mg/L)	4 (4: <0.2 mg/L)	4 (4: <0.2 mg/L)	4 (4: <0.2 mg/L)
NC1=NN=C(CCCCOCc2ccc(Cl)c(F)c2)CS1	2 (2: 5-20 mg/L)	4 (4: <1 mg/L)	4 (4: <1 mg/L)	4 (4: <1 mg/L)	3 (3: 1-5 mg/L)	4 (4: <1 mg/L)	4 (4: <1 mg/L)	4 (4: <1 mg/L)	4 (4: <1 mg/L)	4 (4: <1 mg/L)	3 (3: 1-5 mg/L)	4 (4: <0.2 mg/L)	4 (4: <0.2 mg/L)	4 (4: <0.2 mg/L)	4 (4: <0.2 mg/L)	4 (4: <0.2 mg/L)	4 (4: <0.2 mg/L)
CCc1ccc(OCCCCC2=NN=C(N)SC2)cc1	2 (2: 5-20 mg/L)	2 (2: 5-20 mg/L)	2 (2: 5-20 mg/L)	4 (4: <1 mg/L)	2 (2: 5-20 mg/L)	2 (2: 5-20 mg/L)	4 (4: <1 mg/L)	2 (2: 5-20 mg/L)	4 (4: <1 mg/L)	4 (4: <1 mg/L)	3 (3: 1-5 mg/L)	3 (3: 0.2-1 mg/L)	3 (3: 0.2-1 mg/L)	4 (4: <0.2 mg/L)	4 (4: <0.2 mg/L)	3 (3: 0.2-1 mg/L)	4 (4: <0.2 mg/L)
NC1=NN=C(CCCCOCc2ccc(C(F)(F)F)cc2)CS1	2 (2: 5-20 mg/L)	2 (2: 5-20 mg/L)	3 (3: 1-5 mg/L)	4 (4: <1 mg/L)	2 (2: 5-20 mg/L)	3 (3: 1-5 mg/L)	4 (4: <1 mg/L)	2 (2: 5-20 mg/L)	4 (4: <1 mg/L)	4 (4: <1 mg/L)	3 (3: 1-5 mg/L)	4 (4: <0.2 mg/L)	4 (4: <0.2 mg/L)	4 (4: <0.2 mg/L)	4 (4: <0.2 mg/L)	4 (4: <0.2 mg/L)	4 (4: <0.2 mg/L)
NC1=NN=C(CCCCOCc2cc(F)ccc2F)CS1	2 (2: 5-20 mg/L)	2 (2: 5-20 mg/L)	2 (2: 5-20 mg/L)	3 (3: 1-5 mg/L)	2 (2: 5-20 mg/L)	2 (2: 5-20 mg/L)	3 (3: 1-5 mg/L)	2 (2: 5-20 mg/L)	3 (3: 1-5 mg/L)	3 (3: 1-5 mg/L)	2 (2: 5-20 mg/L)	4 (4: <0.2 mg/L)	4 (4: <0.2 mg/L)	4 (4: <0.2 mg/L)	4 (4: <0.2 mg/L)	4 (4: <0.2 mg/L)	4 (4: <0.2 mg/L)
